System: T1, soluble HRP (horseradish peroxidase)
T1 construct: gene PRXC1A; soluble (free) enzyme, gift of Dr. Elba Bon (UFRJ)
Assay: spectrophotometric, purpurogallin formation at […] nm, nonlinear hyperbolic fit
Format: biochemical, Armoracia rusticana
Conditions: soluble enzyme; co-substrate H2O2 (0.25 mL of 5 mM); pyrogallol 4.0-48.7 mM; 28 °C; pH of kinetics not clearly stated (4.5 or 7.0)

SMILES: Oc1cccc(O)c1O [pyrogallol]
- Km: 5.47 ± 0.71 mM
